# Assay results from PubChem BioAssay AID256 (DTP/NCI, 2004).
# Toxic doses and inconclusive results are not listed.
# Test system: CD2F1 mice, L1210 leukemia ip, survival T/C
# Test: NCI In Vivo Anticancer Drug Screen. Data for tumor model L1210 Leukemia (intraperitoneal) in CD2F1 (CDF1) mice
# Conditions: higher = longer survival
# Procedure, shortened: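 Each value reflects a quotient of treated over vehicle control outcomes in mice with a transplanted tumor.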
# [1] = endpoint: mean survival time, dose: 50.0 mg/kg/injection, schedule: Q01DX009 (ip), vehicle: saline with Tween-80
# [2] = endpoint: mean survival time, dose: 100.0 mg/kg/injection, schedule: Q01DX009 (ip), vehicle: saline with Tween-80
# [3] = endpoint: mean survival time, dose: 100.0 mg/kg/injection, schedule: Q04DX002 (ip), vehicle: saline with Tween-80
# [4] = endpoint: mean survival time, dose: 100.0 mg/kg/injection, schedule: Q04DX003 (ip), vehicle: saline with Tween-80
# [5] = endpoint: mean survival time, dose: 200.0 mg/kg/injection, schedule: Q04DX002 (ip), vehicle: saline with Tween-80
# [6] = endpoint: mean survival time, dose: 400.0 mg/kg/injection, schedule: Q04DX002 (ip), vehicle: saline with Tween-80
# [7] = endpoint: mean survival time, dose: 200.0 mg/kg/injection, schedule: Q01DX009 (ip), vehicle: saline with Tween-80
# [8] = endpoint: mean survival time, dose: 50.0 mg/kg/injection, schedule: Q01DX009 (ip), vehicle: saline
# [9] = endpoint: mean survival time, dose: 400.0 mg/kg/injection, schedule: Q01DX009 (ip), vehicle: saline with Tween-80
# [10] = endpoint: mean survival time, dose: 100.0 mg/kg/injection, schedule: Q01DX001 (ip), vehicle: saline
# [11] = endpoint: mean survival time, dose: 200.0 mg/kg/injection, schedule: Q01DX001 (ip), vehicle: saline
# [12] = endpoint: mean survival time, dose: 400.0 mg/kg/injection, schedule: Q01DX001 (ip), vehicle: saline
smiles,measurement,setting,value
CCCC(C(=O)O)C1=CCCC1 (stereo not given),T/C,"endpoint: mean survival time, dose: 25.0 mg/kg/injection, schedule: Q01DX009 (ip), vehicle: saline with Tween-80",102 % of control
same,T/C,[1],102 % of control
same,T/C,[2],100 % of control
COP1(=O)OCC(C(C)(C)C)CO1 (stereo not given),T/C,"endpoint: mean survival time, dose: 12.5 mg/kg/injection, schedule: Q04DX002 (ip), vehicle: saline",103 % of control
same,T/C,"endpoint: mean survival time, dose: 25.0 mg/kg/injection, schedule: Q04DX002 (ip), vehicle: saline",88 % of control
CC(=O)Oc1ccc(Nc2c3ccccc3nc3ccccc23)cc1,T/C,"endpoint: mean survival time, dose: 44.0 mg/kg/injection, schedule: Q01DX001 (ip), vehicle: saline with Tween-80",119 % of control
same,T/C,"endpoint: mean survival time, dose: 44.0 mg/kg/injection, schedule: Q01DX009 (ip), vehicle: saline with Tween-80",155 % of control
same,T/C,"endpoint: mean survival time, dose: 66.0 mg/kg/injection, schedule: Q01DX001 (ip), vehicle: saline with Tween-80",109 % of control
same,T/C,"endpoint: mean survival time, dose: 66.0 mg/kg/injection, schedule: Q01DX009 (ip), vehicle: saline with Tween-80",94 % of control
same,T/C,"endpoint: mean survival time, dose: 100.0 mg/kg/injection, schedule: Q01DX001 (ip), vehicle: saline with Tween-80",152 % of control
same,T/C,[2],88 % of control
same,T/C,[3],177 % of control
CC(C)CC(NC(=O)c1ccccc1)C(N)=O (stereo not given),T/C,[4],101 % of control
same,T/C,"endpoint: mean survival time, dose: 200.0 mg/kg/injection, schedule: Q04DX003 (ip), vehicle: saline with Tween-80",97 % of control
same,T/C,"endpoint: mean survival time, dose: 400.0 mg/kg/injection, schedule: Q04DX003 (ip), vehicle: saline with Tween-80",92 % of control
CCCCCCCC/C=C/CCCCCCCC1=NCCN1CCO,T/C,[3],95 % of control
same,T/C,[5],103 % of control
same,T/C,[6],100 % of control
O=C(O)c1ccc(C(=O)O)c2c(C(=O)O)ccc(C(=O)O)c12,T/C,[2],95 % of control
same,T/C,"endpoint: mean survival time, dose: 100.0 mg/kg/injection, schedule: Q04DX003 (ip), vehicle: saline",97 % of control
same,T/C,[7],90 % of control
same,T/C,"endpoint: mean survival time, dose: 200.0 mg/kg/injection, schedule: Q04DX003 (ip), vehicle: saline",96 % of control
same,T/C,"endpoint: mean survival time, dose: 400.0 mg/kg/injection, schedule: Q04DX003 (ip), vehicle: saline",93 % of control
CSc1sc2ccccc2[n+]1C,T/C,"endpoint: mean survival time, dose: 25.0 mg/kg/injection, schedule: Q01DX009 (ip), vehicle: saline",100 % of control
same,T/C,[8],110 % of control
CCN(CC)CCSC(=O)c1ccccc1,T/C,[8],103 % of control
same,T/C,"endpoint: mean survival time, dose: 100.0 mg/kg/injection, schedule: Q01DX009 (ip), vehicle: saline",103 % of control
Nc1ncnc2snnc12,T/C,"endpoint: mean survival time, dose: 100.0 mg/kg/injection, schedule: Q01DX001 (ip), vehicle: Klucel (hydroxypropylcellulose) (HPC)",100 % of control
same,T/C,"endpoint: mean survival time, dose: 200.0 mg/kg/injection, schedule: Q01DX001 (ip), vehicle: Klucel (hydroxypropylcellulose) (HPC)",96 % of control
same,T/C,"endpoint: mean survival time, dose: 400.0 mg/kg/injection, schedule: Q01DX001 (ip), vehicle: Klucel (hydroxypropylcellulose) (HPC)",100 % of control
COC(=O)c1ccccc1NC(=S)NC(=O)COc1ccccc1,T/C,[2],97 % of control
same,T/C,[7],95 % of control
same,T/C,[9],98 % of control
CCCCCOC(=O)COc1ccc(F)cc1,T/C,[3],97 % of control
same,T/C,[5],105 % of control
same,T/C,[6],101 % of control
O=C1C(Br)=C(Br)C(=O)C(Br)=C1Br,T/C,[1],91 % of control
same,T/C,[2],94 % of control
same,T/C,[7],86 % of control
O=C(NC(=S)Nc1ccccc1Cl)c1ccc(Cl)cc1,T/C,[3],103 % of control
same,T/C,[5],88 % of control
same,T/C,[6],88 % of control
NC(=O)c1ncc(-c2ccc(Cl)cc2)[nH]c1=O,T/C,"endpoint: mean survival time, dose: 100.0 mg/kg/injection, schedule: Q04DX003 (ip), vehicle: saline sonified",94 % of control
same,T/C,"endpoint: mean survival time, dose: 200.0 mg/kg/injection, schedule: Q04DX003 (ip), vehicle: saline sonified",93 % of control
same,T/C,"endpoint: mean survival time, dose: 400.0 mg/kg/injection, schedule: Q04DX003 (ip), vehicle: saline sonified",96 % of control
Clc1ccc(N=Nc2ccc(Cl)cc2)cc1,T/C,"endpoint: mean survival time, dose: 25.0 mg/kg/injection, schedule: Q04DX003 (ip), vehicle: saline with Tween-80",95 % of control
same,T/C,"endpoint: mean survival time, dose: 50.0 mg/kg/injection, schedule: Q04DX003 (ip), vehicle: saline with Tween-80",95 % of control
same,T/C,[4],92 % of control
NC(=N\O)/C(N)=N/O.[Cl][Pd][Cl],T/C,"endpoint: median survival time, dose: 3.12 mg/kg/injection, schedule: Q04DX003 (ip), vehicle: saline",100 % of control
same,T/C,"endpoint: median survival time, dose: 6.25 mg/kg/injection, schedule: Q04DX003 (ip), vehicle: saline",100 % of control
same,T/C,"endpoint: median survival time, dose: 12.5 mg/kg/injection, schedule: Q04DX003 (ip), vehicle: saline",103 % of control
same,T/C,"endpoint: median survival time, dose: 25.0 mg/kg/injection, schedule: Q04DX003 (ip), vehicle: saline",100 % of control
same,T/C,"endpoint: median survival time, dose: 50.0 mg/kg/injection, schedule: Q04DX003 (ip), vehicle: saline",97 % of control
same,T/C,"endpoint: median survival time, dose: 100.0 mg/kg/injection, schedule: Q04DX003 (ip), vehicle: saline",98 % of control
same,T/C,"endpoint: median survival time, dose: 200.0 mg/kg/injection, schedule: Q04DX003 (ip), vehicle: saline",97 % of control
O=c1[nH]c(=O)n(C(c2ccccc2)(c2ccccc2)c2ccccc2)cc1N(CCO)CCO,T/C,"endpoint: mean survival time, dose: 50.0 mg/kg/injection, schedule: Q01DX001 (ip), vehicle: saline",91 % of control
same,T/C,[10],100 % of control
same,T/C,[11],87 % of control
same,T/C,[12],91 % of control
CN(CCC#N)Cc1cc(C(C)(C)C)cc(-c2ccccc2)c1O,T/C,[2],90 % of control
same,T/C,[7],90 % of control
CCNc1ncnc2nncnc12,T/C,"endpoint: mean survival time, dose: 100.0 mg/kg/injection, schedule: Q01DX001 (ip), vehicle: carboxymethylcellulose (CMC)",98 % of control
O=C(CO)C(OC1OC(CO)C(O)C(O)C1O)C(O)C(O)CO (stereo not given),T/C,[10],103 % of control
same,T/C,[11],97 % of control
same,T/C,[12],100 % of control
CC(=O)Nc1nnc(-c2ccc([N+](=O)[O-])o2)s1,T/C,"endpoint: mean survival time, dose: 75.0 mg/kg/injection, schedule: Q04DX003 (ip), vehicle: saline",97 % of control
same,T/C,"endpoint: mean survival time, dose: 150.0 mg/kg/injection, schedule: Q04DX003 (ip), vehicle: saline",100 % of control
same,T/C,"endpoint: mean survival time, dose: 300.0 mg/kg/injection, schedule: Q04DX003 (ip), vehicle: saline",97 % of control
C#CCOc1c(C(=O)OCC)cnc2c1c(C)nn2CC,T/C,"endpoint: mean survival time, dose: 100.0 mg/kg/injection, schedule: Q04DX003 (ip), vehicle: Klucel (hydroxypropylcellulose) (HPC)",101 % of control
same,T/C,"endpoint: mean survival time, dose: 200.0 mg/kg/injection, schedule: Q04DX003 (ip), vehicle: Klucel (hydroxypropylcellulose) (HPC)",97 % of control
same,T/C,"endpoint: mean survival time, dose: 400.0 mg/kg/injection, schedule: Q04DX003 (ip), vehicle: Klucel (hydroxypropylcellulose) (HPC)",101 % of control
CSc1nc(NC2OCC(O)C(O)C2O)c(C(C)=O)c(=O)n1C (stereo not given),T/C,"endpoint: median survival time, dose: 12.5 mg/kg/injection, schedule: Q01DX005 (ip), vehicle: saline with Tween-80",97 % of control
same,T/C,"endpoint: median survival time, dose: 25.0 mg/kg/injection, schedule: Q01DX005 (ip), vehicle: saline with Tween-80",98 % of control
same,T/C,"endpoint: median survival time, dose: 50.0 mg/kg/injection, schedule: Q01DX005 (ip), vehicle: saline with Tween-80",96 % of control
same,T/C,"endpoint: median survival time, dose: 100.0 mg/kg/injection, schedule: Q01DX005 (ip), vehicle: saline with Tween-80",89 % of control
same,T/C,"endpoint: median survival time, dose: 200.0 mg/kg/injection, schedule: Q01DX005 (ip), vehicle: saline with Tween-80",94 % of control
CC(=O)OC1(c2ccccc2)OC(=O)c2ccccc21 (stereo not given),T/C,[3],97 % of control
same,T/C,[5],91 % of control
same,T/C,[6],108 % of control
CN1C(=O)CC(c2ccc(NC(=O)CI)cc2)C1=O (stereo not given),T/C,"endpoint: mean survival time, dose: 6.25 mg/kg/injection, schedule: Q04DX002 (ip), vehicle: saline with Tween-80",92 % of control
same,T/C,"endpoint: mean survival time, dose: 12.5 mg/kg/injection, schedule: Q04DX002 (ip), vehicle: saline with Tween-80",96 % of control
CSc1nc(=O)[nH]c2c1c1c(N)ncnc1n2C1OC(CO)C(O)C1O (stereo not given),T/C,"endpoint: mean survival time, dose: 12.5 mg/kg/injection, schedule: Q01DX005 (ip), vehicle: distilled water + Tween-80",104 % of control
same,T/C,"endpoint: mean survival time, dose: 25.0 mg/kg/injection, schedule: Q01DX005 (ip), vehicle: distilled water + Tween-80",97 % of control
same,T/C,"endpoint: mean survival time, dose: 50.0 mg/kg/injection, schedule: Q01DX005 (ip), vehicle: distilled water + Tween-80",104 % of control
same,T/C,"endpoint: mean survival time, dose: 100.0 mg/kg/injection, schedule: Q01DX005 (ip), vehicle: distilled water + Tween-80",100 % of control
same,T/C,"endpoint: mean survival time, dose: 200.0 mg/kg/injection, schedule: Q01DX005 (ip), vehicle: distilled water + Tween-80",104 % of control
NC(=O)NN=C1CCC(CC2CCCCC2)CC1 (stereo not given),T/C,[4],112 % of control
COc1cc2ccc(CC(N)=O)cc2cc1OC,T/C,[2],100 % of control
same,T/C,[7],97 % of control
same,T/C,[9],97 % of control
